Measured values taken from ChEMBL document CHEMBL3881525, “Analogs of dehydrophenylahistins and their therapeutic use” (2007).
Values after ≈ are worked out from the molar mass of the structure shown. Active and inactive are the calls of the source. No cut-off for these calls is given here.

Columns and labels:
[1] = Cytotoxicity against human HT-29 cells assessed as reduction in cell viability measured after 48 hrs by resazurin dye-based fluorometric analysis; format: functional; details: Homo sapiens, HT-29, 48 h
HeLa = test: Effect on cell cycle progression in human HeLa cells assessed as increase in 4N cells at 100 nM; format: functional, cell-based
[2] = Drug metabolism assessed as human hepatic cytochrome P450-mediated hydroxylated metabolite P3 and P5 formation; format: ADME
[3] = Cytotoxicity against human OVCAR3 cells assessed as reduction in cell viability measured after 48 hrs by resazurin dye-based fluorometric analysis; format: functional; details: OVCAR-3, 48 h
[4] = Cytotoxicity against mouse B16F10 cells assessed as reduction in cell viability measured after 48 hrs by resazurin dye-based fluorometric analysis; format: functional; details: B16-F10, 48 h
[5] = Cytotoxicity against human CCD-27Sk cells assessed as reduction in cell viability measured after 48 hrs by resazurin dye-based fluorometric analysis
[6] = Antiproliferative activity against taxol-resistant human MES-SA/Dx5 cells expressing MDR1 mRNA and P-gp; format: functional, cell-based
[7] = Antiproliferative activity against human mitoxantrone-sensitive HL60 cells; format: functional, cell-based; details: HL-60
[8] = Antiproliferative activity against human mitoxantrone-resistant HL60/MX2 cells; format: functional, cell-based; details: HL-60
Tubulin (Homo sapiens) [9] = molecular target: T1, Tubulin (Homo sapiens) (UniProt P68371+Q9H4B7+P0DPH7+P68366+Q13509+Q71U36+P04350+Q3ZCM7+P07437+P68363+Q9BQE3+Q6PEY2+Q13885+Q9BVA1+Q9BUF5); test: Induction of microtubule depolymerization in HUVEC at 2 uM measured after 30 mins; format: cell-based
Tubulin (Homo sapiens) [10] = molecular target: T1, Tubulin (Homo sapiens); test: Induction of microtubule depolymerization in HUVEC assessed as cell membrane blebbing at 2 uM measured after 30 mins; format: cell-based
Tubulin (Homo sapiens) [11] = molecular target: T1, Tubulin (Homo sapiens); test: Induction of microtubule depolymerization in human CCD-27Sk cells at 2 uM measured after 30 mins; format: cell-based
Tubulin (Homo sapiens) [12] = molecular target: T1, Tubulin (Homo sapiens); test: Induction of microtubule depolymerization in human CCD-27Sk cells assessed as cell membrane blebbing at 2 uM measured after 30 mins; format: cell-based
HUVEC [13] = test: Induction of apoptosis in HUVEC assessed as cell membrane blebbing; format: functional, cell-based; details: Homo sapiens
HUVEC [14] = test: Induction of apoptosis in HUVEC assessed as disruption of nuclei; format: functional, cell-based; details: Homo sapiens
HUVEC [15] = test: Induction of apoptosis in HUVEC assessed as cell shrinkage; format: functional, cell-based; details: Homo sapiens
Jurkat [16] = test: Induction of apoptosis in human Jurkat cells assessed as DNA laddering at 1 nM by gel electrophoresis; format: functional, cell-based
Jurkat [17] = test: Induction of apoptosis in human Jurkat cells assessed as caspase3 activation; format: functional, cell-based
Jurkat [18] = test: Induction of apoptosis in human Jurkat cells assessed as PARP cleavage at 100 nM measured after 10 hrs by Western blotting; format: functional, cell-based
HUVEC [19] = test: Induction of monolayer permeability in HUVEC assessed as colchicin transport at 2 uM measured up to 1 hr; format: functional, cell-based; details: Homo sapiens
[20] = Antitumor activity against human HT-29 cells xenografted in nude mouse assessed as tumor growth inhibition at 10 mg/kg, ip administered every third day for 5 days in presence of CPT-11 relative to control; format: functional; details: HT-29, ip, 120 h, read-out: TGI
MCF7 [21] = test: Potentiation of taxotere-induced antitumor activity against human MCF7 cells xenografted in nude mouse assessed as tumor growth inhibition at 7.5 mg/kg, ip qd for 4 days measured on day 7; format: functional, organism-based
[22] = Antifungal activity against Trichophyton rubrum isolate 1 measured after 48 hrs by broth dilution method; format: functional
Trichophyton rubrum = test: Fungicidal activity against Trichophyton rubrum isolate 2 measured after 48 hrs by broth dilution method; format: functional; details: isolate 2, 48 h
[23] = Antifungal activity against Trichophyton mentagrophytes isolate 1 measured after 48 hrs by broth dilution method; format: functional
[24] = test system: Trichophyton mentagrophytes; test: Fungicidal activity against Trichophyton mentagrophytes isolate 1 measured after 48 hrs by broth dilution method; format: functional; details: isolate 1, 48 h
[25] = Antifungal activity against Epidermophyton floccosum isolate 1 measured after 48 hrs by broth dilution method; format: functional
[26] = Antifungal activity against Epidermophyton floccosum isolate 2 measured after 48 hrs by broth dilution method; format: functional
Mus musculus = test: Antivascular activity against mouse N202 tumor spheroids expressing H2B-GFP allografted in mouse assessed as inhibition of tumor-induced central vasculature at 10 mg/kg, iv administered on day 12 as infusion for 5 mins measured on day 15 by fluorescence video microscopy; format: functional, organism-based
[27] = Toxicity in mouse allografted with mouse N202 tumor spheroids expressing H2B-GFP assessed as effect on tumor surrounding vasculature in the dorsal skin fold at 10 mg/kg, iv administered on day 12 as infusion for 5 mins measured on day 15; format: organism-based; details: in vivo
HUVEC [28] = test: Induction of monolayer permeability in HUVEC measured up to 15 mins; format: functional, cell-based; details: Homo sapiens
Rattus norvegicus [29] = test: Effect on blood flow in rat muscle at 15 mg/kg, ip measured after 1 hr by [125I]iodoantipyrine based method relative to vehicle control; format: ADME, organism-based; details: in vivo
Rattus norvegicus [30] = test: Effect on blood flow in rat spleen at 15 mg/kg, ip measured after 1 hr by [125I]iodoantipyrine based method relative to vehicle control; format: ADME, organism-based; details: in vivo
Rattus norvegicus [31] = test: Effect on blood flow in rat gut at 15 mg/kg, ip measured after 1 hr by [125I]iodoantipyrine based method relative to vehicle control; format: ADME, organism-based; details: in vivo
Rattus norvegicus [32] = test: Reduction in blood flow in rat brain at 15 mg/kg, ip measured after 24 hrs by [125I]iodoantipyrine based method relative to vehicle control; format: ADME, organism-based; details: in vivo
P22 = test: Induction of necrosis in rat P22 cells implanted in rat compound administered intraperitoneally measured after 24 hrs post dose; format: functional, cell-based
[33] = Antimitotic activity in human MCF7 cells assessed as tubulin foci formation at mitotic block IC50 measured after 20 hrs by immunofluorescence analysis relative to control; format: functional
MCF7 [34] = test: Antimitotic activity in human MCF7 cells assessed as microtubule polymer at twice mitotic block IC50 measured after 20 hrs by immunofluorescence analysis relative to control; format: functional, cell-based
MCF7 [35] = test: Antimitotic activity in human MCF7 cells assessed as decrease in microtubule polymer formation measured after 20 hrs by immunofluorescence analysis relative to control; format: functional, cell-based
Tubulin (Homo sapiens) [36] = molecular target: T1, Tubulin (Homo sapiens); test: Induction of microtubule instability in human MCF7 cells assessed as time spent for shortening at IC25 for mitotic block measured after 20 hrs by immunofluorescence analysis; format: cell-based
Tubulin (Homo sapiens) [37] = molecular target: T1, Tubulin (Homo sapiens); test: Induction of microtubule instability in human MCF7 cells assessed as rescue frequency at IC25 for mitotic block measured after 20 hrs by immunofluorescence analysis; format: cell-based
Tubulin (Homo sapiens) [38] = molecular target: T1, Tubulin (Homo sapiens); test: Induction of microtubule instability in human MCF7 cells assessed as mean shortening rate at IC50 for mitotic block measured after 20 hrs by immunofluorescence analysis; format: cell-based
Tubulin (Homo sapiens) [39] = molecular target: T1, Tubulin (Homo sapiens); test: Induction of microtubule instability in human MCF7 cells assessed as rescue frequency at IC50 for mitotic block measured after 20 hrs by immunofluorescence analysis; format: cell-based
Tubulin (Homo sapiens) [40] = molecular target: T1, Tubulin (Homo sapiens); test: Induction of microtubule dynamic instability in human MCF7 cells at IC25 for mitotic block measured after 20 hrs by immunofluorescence analysis; format: cell-based
[41] = molecular target: Mitogen-activated protein kinase 10 (Rattus norvegicus) (UniProt P49187); details: 10 uM
Mitogen-activated protein kinase 10 (Rattus norvegicus), sequence (P49187 whole entry): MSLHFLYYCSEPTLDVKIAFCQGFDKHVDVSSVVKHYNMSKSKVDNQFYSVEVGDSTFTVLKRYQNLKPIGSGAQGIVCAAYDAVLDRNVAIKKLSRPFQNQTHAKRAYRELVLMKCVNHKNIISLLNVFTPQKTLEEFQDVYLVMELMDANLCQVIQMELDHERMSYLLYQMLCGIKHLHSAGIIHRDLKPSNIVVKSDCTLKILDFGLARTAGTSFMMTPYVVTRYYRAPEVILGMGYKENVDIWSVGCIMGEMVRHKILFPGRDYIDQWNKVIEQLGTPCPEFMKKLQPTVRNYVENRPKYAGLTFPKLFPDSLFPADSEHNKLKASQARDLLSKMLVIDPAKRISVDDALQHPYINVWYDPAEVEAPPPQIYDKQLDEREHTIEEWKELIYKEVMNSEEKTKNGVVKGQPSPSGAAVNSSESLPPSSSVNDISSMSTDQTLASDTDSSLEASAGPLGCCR
Description: Inhibition of rat JNK3 at 10 uM in presence of ATP

CC(C)(C)c1[nH]cnc1/C=c1\[nH]c(=O)/c(=C/c2ccccc2)[nH]c1=O [PLINABULIN]
EC50 [1]: 9.8 to 48 nM | Activity (HeLa): Active | Drug metabolism [2]: Metabolite_Detected | EC50 [3]: > 20000 nM | EC50 [4]: 37.1 nM | EC50 [5]: 9.2 nM | IC50 [6]: 10.5 to 23 nM | EC50 [7]: 6.4 nM | EC50 [8]: 8.17 nM | Activity (Tubulin (Homo sapiens) [9]): Active | Activity (Tubulin (Homo sapiens) [10]): Active | Activity (Tubulin (Homo sapiens) [11]): Active | Activity (Tubulin (Homo sapiens) [12]): Active | Activity (HUVEC [13]): Active | Activity (HUVEC [14]): Active | Activity (HUVEC [15]): Active | Activity (Jurkat [16]): Active | Activity (Jurkat [17]): Dose-dependent effect | Activity (Jurkat [18]): Active | Activity (HUVEC [19]): Active | inhibition in vivo at 10 mg/kg [20]: 65.8 to 83.3% | TGI (MCF7 [21]): Active | MIC [22]: > 16 µg/mL | MFC (Trichophyton rubrum): 0.125 µg/mL (≈ 0.372 µM) | MIC [23]: 2 µg/mL (≈ 5.95 µM) | MFC [24]: > 16 µg/mL | MIC [25]: > 16 µg/mL | MIC [26]: > 16 µg/mL | inhibition (Mus musculus): Active | Activity [27]: Non-Toxic | Activity (HUVEC [28]): Dose-dependent effect | Activity (Rattus norvegicus [29]): Non-Toxic | Activity (Rattus norvegicus [30]): Non-Toxic | Activity (Rattus norvegicus [31]): Non-Toxic | Activity (Rattus norvegicus [32]): Toxic | Activity (P22): Dose-dependent effect | Activity [33]: 73% | Activity (MCF7 [34]): Active | Activity (MCF7 [35]): Dose-dependent effect | Activity (Tubulin (Homo sapiens) [36]): 20.5% | TIME (Tubulin (Homo sapiens) [36]): 0.00333 h | Activity (Tubulin (Homo sapiens) [37]): 2.79 min⁻¹ | Activity (Tubulin (Homo sapiens) [38]): 34.1 um/min | Activity (Tubulin (Homo sapiens) [39]): 2.6 min⁻¹ | Activity (Tubulin (Homo sapiens) [40]): 10.1 um/min | inhibition [41]: > 50%
